For eleven compounds, EC50 results are on record in patent publication US9499550B2 (BRISTOL-MYERS SQUIBB COMPANY, priority 2012, dated 2016).

Experiment [1] concerns HCV genotype 1a (H77 strain) replicon in HUH-7 cells. Kind of experiment: HCV replicon luciferase reporter assay, genotype 1a. It is filed as cell-based. To be noted: Hepatitis C virus, Huh-7, 72 h, HCV genotype 1a replicon luciferase assay, 3 days incubation. In short, it runs like this:
(§1)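 Replicon inhibition for both genotypes was measured as Renilla luciferase signal (EnduRen, 7.5 μM final, 2 h) after 3-day, 37° C exposure of replicon-bearing HUH-7 cells in 4% FCS DMEM, 0.5% DMSO. The 1b construct carries S1179I; the 1a H77 construct carries P1496L and S2204I. Twenty-point, 3-fold dilutions were fitted four-parametrically for EC50, and CC50 was taken from multiplexed Cell Titer-Blue.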
(In general: Replicon systems follow genome replication, usually without infectious particles.)

Experiment [2] has as its system HCV genotype 1b (Con1) replicon in HUH-7 cells. Kind of experiment: HCV replicon luciferase reporter assay, genotype 1b. To be noted: Hepatitis C virus, Huh-7, 72 h, HCV genotype 1b replicon luciferase assay, 3 days incubation. It is filed as cell-based. In a few lines: as §1
The mark [3] stands for this setting: range class, read-out: LE_1a (EC50, range).
[4] abbreviates: range class, read-out: LE_1b (EC50, range).

Broadly, the EC50 is the midpoint of the concentration-response curve.

Where two headings read alike, the source gives them in different places. Bounds are passed on as bounds.

As for `COc1cc(F)cc2c(O[C@@H]3C[C@H]4C(=O)N[C@]5(C(=O)NS(=O)(=O)C6(CF)CC6)C[C@H]5/C=C\CC[C@H](C)C[C@@H](C)[C@H](NC(=O)OC(C)(C)C)C(=O)N4C3)nccc12` [Compound 3173, tert-butyl ((2R,6S,7R,9S,13aS,14aR,16aS,Z)-2-((7-fluoro-5-methoxyisoquinolin-1-yl)oxy)-14a-(((1-(fluoromethyl)cyclopropyl)sulfonyl)carbamoyl)-7,9-dimethyl-5,16-dioxo-1,2,3,5,6,7,8,9,10,11,13a,14,14a,15,16,16a-hexadecahydrocyclopropa[e]pyrrolo[1,2-a][1,4]diazacyclopentadecin-6-yl)carbamate], the concentration giving a half-maximal response (EC50) in experiment [1] (setting [3]) and in experiment [2] (setting [4]) was 4.82 to 103 nM each time.
As to `COc1cc(F)cc2c(O[C@@H]3C[C@H]4C(=O)N[C@]5(C(=O)NS(=O)(=O)C6(CF)CC6)C[C@H]5/C=C\CC[C@@H](C)C[C@@H](C)[C@H](NC(=O)OC(C)(C)C)C(=O)N4C3)nccc12` [Compound 3174, tert-butyl ((2R,6S,7R,9R,13aS,14aR,16aS,Z)-2-((7-fluoro-5-methoxyisoquinolin-1-yl)oxy)-14a-(((1-(fluoromethyl)cyclopropyl)sulfonyl)carbamoyl)-7,9-dimethyl-5,16-dioxo-1,2,3,5,6,7,8,9,10,11,13a,14,14a,15,16,16a-hexadecahydrocyclopropa[e]pyrrolo[1,2-a][1,4]diazacyclopentadecin-6-yl)carbamate], the EC50 in experiment [1] (setting [3]) and in experiment [2] (setting [4]) was less than 5.46 nM each time.
Consider `COc1cc(F)cc2c(O[C@@H]3C[C@H]4C(=O)N[C@]5(C(=O)NS(=O)(=O)C6(CF)CC6)C[C@H]5/C=C\CC[C@H](C)C[C@@H](C)[C@H](NC(=O)OC(C)(C)C(F)(F)F)C(=O)N4C3)nccc12` [Compound 3175, 1,1,1-trifluoro-2-methylpropan-2-yl((2R,6S,7R,9S,13aS,14aR,16aS,Z)-2-((7-fluoro-5-methoxyisoquinolin-1-yl)oxy)-14a-(((1-(fluoromethyl)cyclopropyl)sulfonyl)carbamoyl)-7,9-dimethyl-5,16-dioxo-1,2,3,5,6,7,8,9,10,11,13a,14,14a,15,16,16a-hexadecahydrocyclopropa[e]pyrrolo[1,2-a][1,4]diazacyclopentadecin-6-yl)carbamate], for which the EC50 in experiment [1] (setting [3]) and in experiment [2] (setting [4]) was 4.82 to 103 nM each time.
For the compound `COc1cc(F)cc2c(O[C@@H]3C[C@H]4C(=O)N[C@]5(C(=O)NS(=O)(=O)C6(CF)CC6)C[C@H]5/C=C\CC[C@@H](C)C[C@@H](C)[C@H](NC(=O)OC(C)(C)C(F)(F)F)C(=O)N4C3)nccc12` [Compound 3176, 1,1,1-trifluoro-2-methylpropan-2-yl((2R,6S,7R,9R,13aS,14aR,16aS,Z)-2-((7-fluoro-5-methoxyisoquinolin-1-yl)oxy)-14a-(((1-(fluoromethyl)cyclopropyl)sulfonyl)carbamoyl)-7,9-dimethyl-5,16-dioxo-1,2,3,5,6,7,8,9,10,11,13a,14,14a,15,16,16a-hexadecahydrocyclopropa[e]pyrrolo[1,2-a][1,4]diazacyclopentadecin-6-yl)carbamate], the concentration for a half-maximal effect (EC50) in experiment [1] (setting [3]) and in experiment [2] (setting [4]) was less than 5.46 nM each time.
Regarding `COc1cc(F)cc2c(O[C@@H]3C[C@H]4C(=O)N[C@]5(C(=O)NS(=O)(=O)C6(CF)CC6)C[C@H]5/C=C\CC[C@@H](C)C[C@@H](C)[C@H](NC(=O)O[C@H](C)C(F)(F)F)C(=O)N4C3)nccc12` [Compound 3178, (R)-1,1,1-trifluoropropan-2-yl ((2R,6S,7R,9R,13aS,14aR,16aS,Z)-2-((7-fluoro-5-methoxyisoquinolin-1-yl)oxy)-14a-(((1-(fluoromethyl)cyclopropyl)sulfonyl)carbamoyl)-7,9-dimethyl-5,16-dioxo-1,2,3,5,6,7,8,9,10,11,13a,14,14a,15,16,16a-hexadecahydrocyclopropa[e]pyrrolo[1,2-a][1,4]diazacyclopentadecin-6-yl)carbamate], the EC50 in experiment [1] (setting [3]) was less than 5.46 nM; in experiment [1] (read-out: LE_1a (EC50)), 3.16 nM; in experiment [2] (setting [4]), less than 5.46 nM; in experiment [2] (read-out: LE_1b (EC50)), 0.61 nM.
Take `COc1cc(F)cc2c(O[C@@H]3C[C@H]4C(=O)N[C@]5(C(=O)NS(=O)(=O)C6(CF)CC6)C[C@H]5/C=C\CC[C@H](C)C[C@@H](C)[C@H](NC(=O)OC(C)(C)C(C)(F)F)C(=O)N4C3)nccc12` [Compound 3179, 3,3-difluoro-2-methylbutan-2-yl((2R,6S,7R,9S,13aS,14aR,16aS,Z)-2-((7-fluoro-5-methoxyisoquinolin-1-yl)oxy)-14a-(((1-(fluoromethyl)cyclopropyl)sulfonyl)carbamoyl)-7,9-dimethyl-5,16-dioxo-1,2,3,5,6,7,8,9,10,11,13a,14,14a,15,16,16a-hexadecahydrocyclopropa[e]pyrrolo[1,2-a][1,4]diazacyclopentadecin-6-yl)carbamate]: the EC50 in experiment [1] (setting [3]) and in experiment [2] (setting [4]) was 4.82 to 103 nM throughout.
Consider `COc1cc(F)cc2c(O[C@@H]3C[C@H]4C(=O)N[C@]5(C(=O)NS(=O)(=O)C6(CF)CC6)C[C@H]5/C=C\CC[C@@H](C)C[C@@H](C)[C@H](NC(=O)OC(C)(C)C(C)(F)F)C(=O)N4C3)nccc12` [Compound 3180, 3,3-difluoro-2-methylbutan-2-yl((2R,6S,7R,9R,13aS,14aR,16aS,Z)-2-((7-fluoro-5-methoxyisoquinolin-1-yl)oxy)-14a-(((1-(fluoromethyl)cyclopropyl)sulfonyl)carbamoyl)-7,9-dimethyl-5,16-dioxo-1,2,3,5,6,7,8,9,10,11,13a,14,14a,15,16,16a-hexadecahydrocyclopropa[e]pyrrolo[1,2-a][1,4]diazacyclopentadecin-6-yl)carbamate], for which the EC50 in experiment [1] (setting [3]) and in experiment [2] (setting [4]) was less than 5.46 nM in each case.
In the case of `COc1cc2cc(-c3ccc(OC(C)C)cc3)nc(O[C@@H]3C[C@H]4C(=O)N[C@]5(C(=O)NS(=O)(=O)C6CC6)C[C@H]5/C=C\CC[C@H](C)C[C@@H](C)[C@H](NC(=O)OC(C)(C)C)C(=O)N4C3)c2cc1F` [Compound 3181, tert-butyl ((2R,6S,7R,9S,13aS,14aR,16aS,Z)-14a-((cyclopropylsulfonyl)carbamoyl)-2-((7-fluoro-3-(4-isopropoxyphenyl)-6-methoxyisoquinolin-1-yl)oxy)-7,9-dimethyl-5,16-dioxo-1,2,3,5,6,7,8,9,10,11,13a,14,14a,15,16,16a-hexadecahydrocyclopropa[e]pyrrolo[1,2-a][1,4]diazacyclopentadecin-6-yl)carbamate], the results for the EC50 in experiment [1] (setting [3]) and in experiment [2] (setting [4]) were 4.82 to 103 nM and less than 5.46 nM, respectively.
In the case of `COc1cc2cc(-c3ccc(OC(C)C)cc3)nc(O[C@@H]3C[C@H]4C(=O)N[C@]5(C(=O)NS(=O)(=O)C6CC6)C[C@H]5/C=C\CC[C@@H](C)C[C@@H](C)[C@H](NC(=O)OC(C)(C)C)C(=O)N4C3)c2cc1F` [Compound 3182, tert-butyl ((2R,6S,7R,9R,13aS,14aR,16aS,Z)-14a-((cyclopropylsulfonyl)carbamoyl)-2-((7-fluoro-3-(4-isopropoxyphenyl)-6-methoxyisoquinolin-1-yl)oxy)-7,9-dimethyl-5,16-dioxo-1,2,3,5,6,7,8,9,10,11,13a,14,14a,15,16,16a-hexadecahydrocyclopropa[e]pyrrolo[1,2-a][1,4]diazacyclopentadecin-6-yl)carbamate], the EC50 in experiment [1] (setting [3]) and in experiment [2] (setting [4]) was less than 5.46 nM each time.
Turning to `COc1cc2cc(-c3ccc(OC(C)C)cc3)nc(O[C@@H]3C[C@H]4C(=O)N[C@]5(C(=O)NS(=O)(=O)C6(C)CC6)C[C@H]5/C=C\CC[C@H](C)C[C@@H](C)[C@H](NC(=O)OC(C)(C)C)C(=O)N4C3)c2cc1F` [Compound 3183, tert-butyl ((2R,6S,7R,9S,13aS,14aR,16aS,Z)-2-((7-fluoro-3-(4-isopropoxyphenyl)-6-methoxyisoquinolin-1-yl)oxy)-7,9-dimethyl-14a-(((1-methylcyclopropyl)sulfonyl)carbamoyl)-5,16-dioxo-1,2,3,5,6,7,8,9,10,11,13a,14,14a,15,16,16a-hexadecahydrocyclopropa[e]pyrrolo[1,2-a][1,4]diazacyclopentadecin-6-yl)carbamate], the EC50 is 4.82 to 103 nM in experiment [1] (setting [3]) and less than 5.46 nM in experiment [2] (setting [4]).
Consider `COc1cc2cc(-c3ccc(OC(C)C)cc3)nc(O[C@@H]3C[C@H]4C(=O)N[C@]5(C(=O)NS(=O)(=O)C6(C)CC6)C[C@H]5/C=C\CC[C@@H](C)C[C@@H](C)[C@H](NC(=O)OC(C)(C)C)C(=O)N4C3)c2cc1F` [Compound 3184, tert-butyl ((2R,6S,7R,9R,13aS,14aR,16aS,Z)-2-((7-fluoro-3-(4-isopropoxyphenyl)-6-methoxyisoquinolin-1-yl)oxy)-7,9-dimethyl-14a-(((1-methylcyclopropyl)sulfonyl)carbamoyl)-5,16-dioxo-1,2,3,5,6,7,8,9,10,11,13a,14,14a,15,16,16a-hexadecahydrocyclopropa[e]pyrrolo[1,2-a][1,4]diazacyclopentadecin-6-yl)carbamate], for which the EC50 in experiment [1] (setting [3]) was less than 5.46 nM; in experiment [1] (read-out: LE_1a (EC50)) it was 2.78 nM; in experiment [2] (setting [4]), less than 5.46 nM; in experiment [2] (read-out: LE_1b (EC50)), 1.26 nM.
